According to article PMC2841397 (Xenobiotica; the fate of foreign compounds in biological …, 2010):
“And” between values parts separate entries of the source, which are not always exact repeats. Equal values may be shown once. Read-outs that look alike come from different tables or passages of the source.

Experiments:
[1] = Urinary excretion after intravenous administration to rats; assay type: in vivo, rat
[2] = Urinary excretion after oral administration to rats; assay type: in vivo, rat
[3] = not given; remark: listed apart in the source
[4] = Mean (CV%)
[5] = tested on: cardiomyocytes; details: ref Beigi et al. 2006, Jóźwiak et al. 2007, cited from earlier work; for maximum contractile response: cardiomyocyte model, Woo et al. 2009
[6] = tested on: isolated rat hepatocytes; details: ref Koster et al. 1986, cited from earlier work
[7] = tested on: isolated rat enterocytes; details: ref Koster et al. 1986, cited from earlier work
[8] = tested on: β2-AR coupled GS signaling; details: ref Woo et al. 2009; cited from earlier work
[9] = racemic-Fen 2 mg kg^-1 intravenous, male Wistar rats; ref Koster et al. 1985; cited from earlier work
[10] = rat; ref Koster et al. 1985, 1986; Hildebrandt et al. 1994; cited from earlier work
[11] = intravenous 5 mg kg^-1, n=5, mean
[12] = model parameter, iv 5 and oral 25 mg kg^-1

CC(Cc1ccc(O)cc1)NCC(O)c1cc(O)cc(O)c1 [(R,R)-Fen, (R,R)-Fenoterol]
Dose (%) excreted into urine ([1]; after intravenous (R,R)-Fen 5 mg kg^-1, 0-6 h, individual animals): 2.24% and 7.75% | Dose (%) excreted into urine ([1]; after intravenous (R,R)-Fen 5 mg kg^-1, 6-24 h): 1.70 ± 1.77% | Dose (%) excreted into urine ([1]; after intravenous (R,R)-MFen 5 mg kg^-1, 0-6 h): 1.43 ± 0.21% | Dose (%) excreted into urine ([1]; after intravenous (R,R)-MFen 5 mg kg^-1, 6-24 h): 0.17 ± 0.05% | dose excreted in the cumulative 24-h urine collection ([1]; after intravenous administration of (R,R)-Fen): about 7% | administered dose excreted, 24-h cumulative urinary excretion ([1]; after intravenous administration of (R,R)-MFen): about 2% | Dose (%) excreted into urine ([2]; after oral (R,R)-Fen 25 mg kg^-1, 0-6 h, one animal): 0.17% | Dose (%) excreted into urine ([2]; after oral (R,R)-Fen 25 mg kg^-1, 6-24 h): 0.16 ± 0.12% | Dose (%) excreted into urine ([2]; after oral (R,R)-MFen 25 mg kg^-1, 0-6 h, individual animals): 0.05% and 0.04% | Dose (%) excreted into urine ([2]; after oral (R,R)-MFen 25 mg kg^-1, 6-24 h): 0.02 ± 0.01% | dose excreted in the cumulative 24-h urine collection ([2]; after oral administration of (R,R)-Fen): less than 1% | administered dose excreted, cumulative urine ([2]; after oral administration of (R,R)-MFen): Trace amounts | Tmax (intravenous 5 mg kg^-1, n=5): 5.0 min | AUC0-inf. [11]: 36200 ng·min/mL | C0 [11]: 2.237 µg/mL | Cl [11]: 146 mL/min/kg and 145.7 mL/min/kg | T1/2λz [11]: 1.815 h | VSS [11]: 8.2 L/kg | area under the curve (AUC) (intravenous administration): 119 nmol·min/mL | Cmax ([3]; oral 25 mg kg^-1): 6.9 ± 0.3 nM | Tmax ([3]; oral 25 mg kg^-1): 2 h | AUC0-inf. ([3]; oral 25 mg kg^-1, mean): 692 ng·min/mL and 691.7 ng·min/mL | Cmax ([3]; oral 25 mg kg^-1, mean): 0.0021 µg/mL | T1/2λz ([3]; oral 25 mg kg^-1, mean): 2.808 h | net exposure (AUC) ([3]; oral administration 25 mg kg^-1): 2.3 nmol·min/mL | CL ([4]; calculated from model parameters, equation (5)): 170 (8%) ml min^-1kg^-1 | Vss ([4]; calculated from model parameters, equation (6)): 11.6 (15%) l kg^-1 | T1/2λz ([4]; calculated from model parameters, equations (7) and (8)): 96.4 (12%) min | Vc ([4]; model parameter): 3.94 (20%) l kg^-1 | ka1 ([4]; model parameter): 0.004 (39%) min^-1 | ka2 ([4]; model parameter): 0.167 (79%) min^-1 | k10 [4, 12]: 0.043 min^-1 and 0.043 (15%) min^-1 | k12 [4, 12]: 0.023 (26%) min^-1 | k21 [4, 12]: 0.012 (18%) min^-1 | F ([4]; model parameter, systemic bioavailability): 0.473 (25%) | maximum contractile response [5]: significant increase | EC50 in the cardiomyocyte model [5]: reduced | Clint, conversion to (R,R)-Fen-PG ([6]; isolated rat hepatocytes): 0.00148 ± 0.00032 mL/min/kg | Clint, conversion to (R,R)-Fen-PG ([7]; isolated rat enterocytes): 0.00079 ± 0.0002 mL/min/kg | β2-AR coupled GS signaling [8]: selectively activates

C[C@H](Cc1ccc(O[C@@H]2O[C@H](C(=O)O)[C@@H](O)[C@H](O)[C@H]2O)cc1)NC[C@H](O)c1cc(O)cc(O)c1 [(R,R)-Fen-PG]
observed fraction of (R,R)-Fen-PG formation ([6]; hepatocytes): 0.28 ± 0.01 | observed fraction of (R,R)-Fen-PG formation ([7]; enterocytes): 0.52 ± 0.01

COc1ccc(CC(C)NCC(O)c2cc(O)cc(O)c2)cc1 [(R,R)-MFen, (R,R)-methoxyfenoterol]
maximum contractile response [5]: significant increase

CC(Cc1ccc(O)cc1)NCC(O)c1cc(O)cc(O)c1 [(S,S)-Fen]
maximum contractile response [5]: no observed effect

CC(Cc1ccc(O)cc1)NCC(O)c1cc(O)cc(O)c1 (stereo not drawn) [Fen, 5-[1-hydroxy-2-[[2-(4-hydroxyphenyl)-1-methylethyl]-amino]-ethyl]-1,3-benzenediol]
Vss [9]: 1.3 L/kg | clearance [9]: 72.8 mL/min/kg | k10 [9]: 0.197 min⁻¹ | bioavailability after oral administration [10]: less than 1%
